In patent US8293681B2, “Seed treatment agent and method for protecting plant” (Sumitomo Chemical Company, Ltd., priority 2008, dated 2012):

What was measured:
[1] = test system: root rot on pea (Fusarium solani f. sp. pisi); experiment: Test Example 1: seed treatment of pea, control of root rot; type: in vivo; conditions: pea seeds, 10 gai/100 kg seed
Experimental: (§1) 10 μl of a dimethylsulphoxide solution of the compound (1b) and 10 g of pea (Waiseiakabanakinusaya) seeds were put in a 50 ml tube and mixed to allow the compound (1b) to stick to the surface of the seeds and then the mixture was allowed to stand still overnight to obtain treated seeds of the present invention. A plastic pot was filled with sandy soil, and the treated seeds of the present invention were disseminated. Then the seeds were covered with sandy soil, which had been mixed with a bran medium on which root rot on pea (Fusarium solani f. sp. pisi) had been allowed to grow and the peas were grown in a greenhouse of from 22 to 24° C. for six days while sprinkling water appropriately. A spore suspension of root rot on pea was perfused on the root of the seedlings for inoculation and the peas were allowed to grow in a greenhouse for further six days and the control effect was checked.
Besides, the incidence of disease was also checked in the case of seeds without the treatment with the agent in order to calculate the control value.
(§2) The incidence of disease was calculated by Equation 1 and the control value was calculated by Equation 2 based on the incidence of disease.
Incidence of disease=(Number of no budding seeds and number of seedlings in which development of disease was observed)×100/(Number of total disseminated seeds) “Equation 1” Control value=100×(A−B)/A “Equation 2” […]

rice 'Bakanae' disease = experiment: Test Example 2: immersion of unhulled rice seeds affected with rice 'Bakanae' disease; type: in vivo, Gibberella fujikuroi; set-up: key to Incidence of disease: % of seedlings diseased: diseased×100/total seedlings; key to Control value: 100×(A−B)/A, from incidence of disease (untreated A, treated B); conditions: rice seeds immersed 24 hours; for Incidence of disease: untreated 19.2
Experimental: Incidence of disease=(Number of no budding seeds and number of seedlings in which development of disease was observed)×100/(Number of total disseminated seeds) “Equation 1” Control value=100×(A−B)/A “Equation 2” The flowable of the compound (1a) and the flowable of the compound (1b) were diluted with water to prepare an agent solution containing the compound (1a) or compound (1b). Unhulled rice seeds (Tanginbozu) affected with rice ‘Bakanae’ disease was immersed in the agent solution for 24 hours and then the unhulled rice seeds were taken out of the agent solution and air dried to obtain treated seeds. The treated seeds were immersed in water at 12° C. for 4 days and subsequently in water at 30° C. overnight. A plastic pot was filled with sandy soil, and the treated seeds were disseminated and allowed to grow in a greenhouse at 26° C. for 23 days to investigate the control effect. Besides, the incidence of disease was also checked in the case of seeds without the treatment with the agent in order to calculate the control value. The incidence of disease was calculated by Equation 3 and the control value was calculated based on the incidence of disease by Equation 2. Incidence of disease=(Number of seedlings in which development of disease was observed)×100/(Number of total seedlings) “Equation 3”

[2] = test system: root rot on pea (Fusarium solani f. sp. pisi); experiment: Test Example 3: seed treatment of pea, control of root rot, with reference compounds; type: in vivo; set-up: key to Incidence of disease: % = (non-budding seeds + diseased seedlings)×100/total seeds; key to Control value: control value = 100×(A−B)/A, A = untreated, B = treated incidence; conditions: pea seeds; for Incidence of disease: untreated 53
Experimental: Incidence of disease=(Number of no budding seeds and number of seedlings in which development of disease was observed)×100/(Number of total disseminated seeds) “Equation 1” Control value=100×(A−B)/A “Equation 2”
as §1, with “of the compound (1a) or compound (1b)” for “of the compound (1b)”, “allow the compound (1a) or compound (1b)” for “allow the compound (1b)”
Besides, the incidence of disease was also checked in the case of seeds without the treatment with the agent in order to calculate the control value. Also, 2-[2-(2-methyl-phenoxymethyl)-phenyl]-2-methoxy-N-methyl-acetamide, which is described in International Publication WO 95/27,693 and hereinafter referred to as compound A, and 2-[2-(2-chloro-5-methyl-phenoxymethyl)-phenyl]-2-methoxy-N-methyl-acetamide, which is described in International Publication WO 96/07,633 and hereinafter referred to as compound B, were used as reference compounds.
as §2

Structure (SMILES)	Control value [1]	Incidence of disease ([1]; untreated 33)	Control value (rice 'Bakanae' disease; 62.5 ppm)	Incidence of disease (rice 'Bakanae' disease; 62.5 ppm)	Control value (rice 'Bakanae' disease; 125 ppm)	Incidence of disease (rice 'Bakanae' disease; 125 ppm)	Control value (rice 'Bakanae' disease; 500 ppm)	Incidence of disease (rice 'Bakanae' disease; 500 ppm)	Control value (rice 'Bakanae' disease; 2000 ppm)	Incidence of disease (rice 'Bakanae' disease; 2000 ppm)	Control value ([2]; 2.5 gai/100 kg seed)	Incidence of disease ([2]; 2.5 gai/100 kg seed)	Control value ([2]; 10 gai/100 kg seed)	Incidence of disease ([2]; 10 gai/100 kg seed)
CNC(=O)C(OC)c1ccccc1COc1cc(C)ccc1C (racemic) [Compound (1b)]	100	0	95	0.9	93	1.4	92	1.6	93	1.3	81	10	100	0
CNC(=O)[C@H](OC)c1ccccc1COc1cc(C)ccc1C [Compound (1a)]	–	–	–	–	–	–	–	–	–	–	97	4	100	0
CNC(=O)C(OC)c1ccccc1COc1ccccc1C (centres unmarked) [Compound A, 2-[2-(2-methyl-phenoxymethyl)-phenyl]-2-methoxy-N-methyl-acetamide, reference compound]	–	–	–	–	–	–	–	–	–	–	57	23	87	7
CNC(=O)C(OC)c1ccccc1COc1cc(C)ccc1Cl (centres unmarked) [Compound B, 2-[2-(2-chloro-5-methyl-phenoxymethyl)-phenyl]-2-methoxy-N-methyl-acetamide, reference compound]	–	–	–	–	–	–	–	–	–	–	62	20	81	10
